Legend:
U87MG tumour cells = experiment: Test of in vitro proliferation of U87MG tumour cells; type: cell-based; conditions: Homo sapiens, U-87 MG, 72 h, U87MG cells, 72 hours; read-out: U87 Cell Proliferation IC50
Description: Model 4: Test of in vitro Proliferation of U87MG Tumour Cells.
The cell growth is determined with the reagent CellTiter 96 AQueous One Solution Cell Proliferation Assay from Promega (Cat. No. G3581).

PI3Kα (p110α/p85α) = PI3Kα (p110α/p85α) (Homo sapiens (Human), UniProt P42336); experiment: PI3Kα enzymatic test by measuring the consumption of ATP; type: biochemical
Sequence of PI3Kα (p110α/p85α) (P42336 whole entry): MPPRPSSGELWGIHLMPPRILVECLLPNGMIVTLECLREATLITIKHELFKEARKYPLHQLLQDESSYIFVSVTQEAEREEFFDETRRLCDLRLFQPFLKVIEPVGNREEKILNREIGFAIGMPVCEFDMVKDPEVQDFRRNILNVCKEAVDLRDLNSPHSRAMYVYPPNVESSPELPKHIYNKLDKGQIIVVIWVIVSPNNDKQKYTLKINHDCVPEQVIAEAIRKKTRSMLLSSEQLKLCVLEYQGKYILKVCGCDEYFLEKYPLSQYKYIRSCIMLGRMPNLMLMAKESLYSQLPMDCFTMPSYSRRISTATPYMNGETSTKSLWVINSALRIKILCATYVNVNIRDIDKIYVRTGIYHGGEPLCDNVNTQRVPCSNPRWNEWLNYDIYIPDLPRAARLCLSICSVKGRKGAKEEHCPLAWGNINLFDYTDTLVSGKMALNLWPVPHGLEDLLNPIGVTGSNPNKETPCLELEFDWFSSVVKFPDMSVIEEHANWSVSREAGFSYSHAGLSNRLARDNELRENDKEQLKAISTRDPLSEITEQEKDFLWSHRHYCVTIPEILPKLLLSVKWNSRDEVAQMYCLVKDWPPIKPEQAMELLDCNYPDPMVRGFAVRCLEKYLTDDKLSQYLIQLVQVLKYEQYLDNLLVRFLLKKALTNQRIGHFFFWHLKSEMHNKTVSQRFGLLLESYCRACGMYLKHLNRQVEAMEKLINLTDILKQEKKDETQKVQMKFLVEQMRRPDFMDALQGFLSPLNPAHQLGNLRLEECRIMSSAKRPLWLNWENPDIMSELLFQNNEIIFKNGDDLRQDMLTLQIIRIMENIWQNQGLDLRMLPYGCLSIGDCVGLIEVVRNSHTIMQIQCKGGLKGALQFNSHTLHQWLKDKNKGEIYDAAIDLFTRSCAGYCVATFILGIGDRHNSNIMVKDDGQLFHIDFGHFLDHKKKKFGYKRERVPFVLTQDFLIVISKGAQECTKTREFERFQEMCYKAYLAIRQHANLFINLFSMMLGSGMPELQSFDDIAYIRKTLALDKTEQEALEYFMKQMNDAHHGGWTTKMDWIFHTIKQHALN
Sequence of PI3Kα (p110α/p85α) (P27986 whole entry partner): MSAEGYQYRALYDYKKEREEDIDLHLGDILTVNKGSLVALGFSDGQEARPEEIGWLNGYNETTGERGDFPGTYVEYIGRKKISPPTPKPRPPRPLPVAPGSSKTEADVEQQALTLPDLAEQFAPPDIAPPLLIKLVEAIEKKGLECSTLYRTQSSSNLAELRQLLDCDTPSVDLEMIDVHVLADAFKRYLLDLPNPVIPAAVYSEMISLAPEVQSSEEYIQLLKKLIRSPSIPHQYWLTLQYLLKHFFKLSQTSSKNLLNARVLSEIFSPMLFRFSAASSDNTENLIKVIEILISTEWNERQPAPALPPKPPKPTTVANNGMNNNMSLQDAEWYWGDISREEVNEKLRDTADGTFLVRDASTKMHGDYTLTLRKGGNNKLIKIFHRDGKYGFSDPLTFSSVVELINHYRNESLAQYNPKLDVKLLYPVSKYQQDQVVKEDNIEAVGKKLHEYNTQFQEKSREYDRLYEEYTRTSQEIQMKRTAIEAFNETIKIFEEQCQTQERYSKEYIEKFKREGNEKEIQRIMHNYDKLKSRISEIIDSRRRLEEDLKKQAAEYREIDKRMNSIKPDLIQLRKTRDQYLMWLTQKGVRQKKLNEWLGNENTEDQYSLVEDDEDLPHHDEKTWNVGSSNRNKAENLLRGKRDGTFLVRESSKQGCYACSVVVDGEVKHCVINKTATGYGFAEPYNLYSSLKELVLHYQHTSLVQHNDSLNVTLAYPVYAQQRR
How it was run: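 p110α/p85α (1.7 μg/ml) with 50 μM PIP2 and 2 μM ATP in pH 7.5 Tris buffer with EGTA, MgCl2, Chaps, DTT; reaction 90 min. Remaining ATP measured by luciferin/luciferase luminescence; IC50 from threefold serial dilutions spanning at least 10 000-fold.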

[1] = target: mTOR (human recombinant aa mTOR 1360-2549) (Homo sapiens (Human), UniProt P42345); experiment: mTOR enzymatic test by TR-FRET (phosphorylation of GFP-4EBP1); type: biochemical
Sequence of mTOR (human recombinant aa mTOR 1360-2549) (P42345 1360-2549): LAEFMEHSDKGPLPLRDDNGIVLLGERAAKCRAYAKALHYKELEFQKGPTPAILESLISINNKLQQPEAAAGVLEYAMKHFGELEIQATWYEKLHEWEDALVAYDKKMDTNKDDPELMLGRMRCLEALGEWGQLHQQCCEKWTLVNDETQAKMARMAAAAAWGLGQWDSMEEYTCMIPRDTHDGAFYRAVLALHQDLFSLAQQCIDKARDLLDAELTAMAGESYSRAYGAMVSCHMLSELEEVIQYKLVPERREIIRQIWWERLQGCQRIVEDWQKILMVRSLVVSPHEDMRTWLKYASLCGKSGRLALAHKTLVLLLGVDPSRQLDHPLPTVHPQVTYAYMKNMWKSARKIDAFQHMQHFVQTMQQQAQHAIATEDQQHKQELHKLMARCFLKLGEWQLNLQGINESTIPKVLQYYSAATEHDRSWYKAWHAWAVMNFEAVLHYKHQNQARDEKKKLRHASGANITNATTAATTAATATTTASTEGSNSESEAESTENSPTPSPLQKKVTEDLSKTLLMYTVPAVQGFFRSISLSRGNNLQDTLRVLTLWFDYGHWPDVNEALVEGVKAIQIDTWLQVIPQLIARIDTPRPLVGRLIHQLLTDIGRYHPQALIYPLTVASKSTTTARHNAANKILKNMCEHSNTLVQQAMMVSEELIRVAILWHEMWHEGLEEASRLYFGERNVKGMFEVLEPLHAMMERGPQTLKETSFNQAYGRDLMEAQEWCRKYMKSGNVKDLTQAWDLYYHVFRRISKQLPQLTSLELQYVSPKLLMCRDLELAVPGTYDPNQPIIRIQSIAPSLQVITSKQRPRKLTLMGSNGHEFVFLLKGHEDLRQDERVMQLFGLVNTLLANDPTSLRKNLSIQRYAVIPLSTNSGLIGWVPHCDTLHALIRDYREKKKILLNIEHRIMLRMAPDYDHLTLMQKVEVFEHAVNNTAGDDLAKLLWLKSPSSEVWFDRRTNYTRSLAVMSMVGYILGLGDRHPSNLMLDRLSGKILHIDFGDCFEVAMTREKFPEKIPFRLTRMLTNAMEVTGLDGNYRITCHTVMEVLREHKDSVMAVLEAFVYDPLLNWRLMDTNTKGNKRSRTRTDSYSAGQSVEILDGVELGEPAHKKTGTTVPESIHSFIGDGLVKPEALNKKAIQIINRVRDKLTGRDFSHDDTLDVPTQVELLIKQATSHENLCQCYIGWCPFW
How it was run: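 TR-FRET detection of GFP-4EBP1 phosphorylation by a terbium-labelled anti-phospho-Thr46 antibody. Kinase reaction ran 30 min at room temperature, was quenched with EDTA (10 mM final) plus Tb-antibody (2 nM final) and left 60 min. Emission at 520 and 490 nm after 340 nm excitation, reported as the 520/490 ratio.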

Akt-pS473 in U87MG cells = conditions: Homo sapiens, U-87 MG, read-out: U87 Akt-pS473 % Inhibition or IC50, nM (IC50), U87MG cells
Description: Model 3: Cellular Test of Phosphorylation of the Epitope S473 of the Akt Protein on the U87MG Line Via an ELISA Test
An electrochemiluminescence signal is generated by a ruthenium-labelled anti-rabbit antibody.
After culturing for 16-20 hours (the cells are at 100% of confluence) at 37° C. under 5% CO2, 1 μl of the chemical compounds in 100% DMSO (1% DMSO final concentration on the cells) is added. The cells are incubated with the compounds for 3 hours at 37° C. under 5% CO2.
The free sites are blocked with 150 μl/well of a buffer of 50 mM Tris pH 7.5, 0.15 M NaCl, 0.02% Tween 20, 3% BSA with stirring at 450 rpm for 1 hour at room temperature, followed by a step of washing with 3×300 μl of a buffer of 50 mM Tris pH 7.5, 0.15 M NaCl, 0.02% Tween 20.
15 μl of cell lysate are mixed with 15 μl of a 50 mM buffer of Tris pH 7.5, 0.15 M NaCl, 0.02% Tween 20, 1% BSA in a precoated ELISA plate (see above), and incubated for 1 hour at room temperature with stirring, followed by a step of washing with 3×300 μl of a buffer of 50 mM Tris pH 7.5, 0.15 M NaCl, 0.02% Tween 20. The pS473 epitope of Akt is detected with a rabbit polyclonal antibody (Cell Signaling, SC9271), diluted 100-fold in 50 mM Tris pH 7.5, 0.15 M NaCl, 0.02% Tween 20, 1% BSA, 25 μl/well (incubation for 1 hour at room temperature with stirring at 450 rpm).
After washing (see above), revelation is performed with a ruthenium-labelled anti-rabbit antibody (MSD R32AB1), diluted 3000-fold in a 50 mM buffer of Tris pH 7.5, 0.15 M NaCl, 0.02% Tween 20, 1% BSA, 25 μl/well, followed by incubation for 1 hour at room temperature with stirring at 450 rpm, and the plates are covered with aluminium.
After a further washing step, the plates are emptied and 150 μl of MSD Read Buffer T diluted fourfold with water are added. The electrochemiluminescence is measured on the MSD Sector Imager 6000.

Compound | IC50 (U87MG tumour cells) [nM] | PI3Ka IC50 (PI3Kα (p110α/p85α)) [nM] | IC50 [1] [nM] | IC50 (Akt-pS473 in U87MG cells) [nM]
CCN1CC(C)(C)Oc2nc(N3CC4CCC(C3)O4)nc(-c3ccc(NC(=O)Nc4ccc(N5CCN(S(C)(=O)=O)CC5)cc4)c(F)c3)c2C1=O [Example 235, 1-{4-[6-Ethyl-8,8-dimethyl-2-(8-oxa-3-azabicyclo[3.2.1]oct-3-yl)-5-oxo-5,6,7,8-tetrahydro-9-oxa-1,3,6-triazabenzocyclohepten-4-yl]-2-fluorophenyl}-3-[4-(4-methanesulfonylpiperazin-1-yl)phenyl]urea] | 29 | >7200 | 89 | 10
CCN1CC(C)(C)Oc2nc(N3CCOC[C@@H]3C)nc(-c3ccc(NC(=O)NC)c(F)c3)c2C1=O [Example 2, 1-{4-[6-Ethyl-8,8-dimethyl-2-((S)-3-methylmorpholin-4-yl)-5-oxo-5,6,7,8-tetrahydro-9-oxa-1,3,6-triazabenzocyclohepten-4-yl]-2-fluorophenyl}-3-methylurea] | 142 | 547 | 22 | 31
CCN1CC(C)(C)Oc2nc(N3C4CCC3COC4)nc(-c3ccc(NC(=O)Nc4ccncn4)cc3)c2C1=O [Example 92, 1-{4-[6-Ethyl-8,8-dimethyl-2-(3-oxa-8-azabicyclo[3.2.1]oct-8-yl)-5-oxo-5,6,7,8-tetrahydro-9-oxa-1,3,6-triazabenzocyclohepten-4-yl]phenyl}-3-pyrimidin-4-ylurea] | 99 | >10000 | 40 | 12
CNC(=O)Nc1ccc(-c2nc(N3C4CCC3COC4)nc3c2C(=O)N(C)CC(C)(C)O3)cc1F [Example 46, 1-{2-Fluoro-4-[6,8,8-trimethyl-2-(3-oxa-8-azabicyclo[3.2.1]oct-8-yl)-5-oxo-5,6,7,8-tetrahydro-9-oxa-1,3,6-triazabenzocyclohepten-4-yl]phenyl}-3-methylurea] | 90 | 8880 | 26 | 24
CCN1CC(C)(C)Oc2nc(N3CC4CCC(C3)O4)nc(-c3ccc(NC(=O)NCC4CCS(=O)(=O)C4)c(F)c3)c2C1=O (stereo not drawn) [Example 129, 1-(1,1-Dioxotetrahydro-1λ6-thiophen-3-ylmethyl)-3-{4-[6-ethyl-8,8-dimethyl-2-(8-oxa-3-azabicyclo[3.2.1]oct-3-yl)-5-oxo-5,6,7,8-tetrahydro-9-oxa-1,3,6-triazabenzocyclohepten-4-yl]-2-fluorophenyl}urea] | > 10000 | >10000 | 1380 | > 3000
CCN1CC(C)(C)Oc2nc(N3CC4CCC(C3)O4)nc(-c3ccc(NC(=O)Nc4cnn(C)c4)c(F)c3)c2C1=O [Example 143, 1-{4-[6-Ethyl-8,8-dimethyl-2-(8-oxa-3-azabicyclo[3.2.1]oct-3-yl)-5-oxo-5,6,7,8-tetrahydro-9-oxa-1,3,6-triazabenzocyclohepten-4-yl]-2-fluorophenyl}-3-(1-methyl-1H-pyrazol-4-yl)urea] | 295 | 3180 | 19 | 62
CCN1CC(C)(C)Oc2nc(N3CCOC[C@@H]3C)nc(-c3ccc(NC(=O)Nc4nnc(C)o4)c(F)c3)c2C1=O [Example 170, 1-{4-[6-Ethyl-8,8-dimethyl-2-((S)-3-methylmorpholin-4-yl)-5-oxo-5,6,7,8-tetrahydro-9-oxa-1,3,6-triazabenzocyclohepten-4-yl]-2-fluorophenyl}-3-(5-methyl-[1,3,4]oxadiazol-2-yl)urea] | 557 | 824 | 106 | 94
CCN1CC(C)(C)Oc2nc(N3CCOC[C@@H]3C)nc(-c3ccc(NC(=O)NC)cc3F)c2C1=O [Example 11, 1-{4-[6-ethyl-8,8-dimethyl-2-((S)-3-methylmorpholin-4-yl)-5-oxo-5,6,7,8-tetrahydro-9-oxa-1,3,6-triazabenzocyclohepten-4-yl]-3-fluorophenyl}-3-methylurea] | 271 | 2300 | 13 | 61
CCOC(=O)Nc1ccc(-c2nc(N3CC4CCC(C3)O4)nc3c2C(=O)N(CC)CC(C)(C)O3)cc1 [Example 106, {4-[6-Ethyl-8,8-dimethyl-2-(8-oxa-3-azabicyclo[3.2.1]oct-3-yl)-5-oxo-5,6,7,8-tetrahydro-9-oxa-1,3,6-triazabenzocyclohepten-4-yl]phenyl}carbamic acid ethyl ester] | 6560 | >10000 | 442 | 767
CCN1CC(C)(C)Oc2nc(N3CCOC[C@@H]3C)nc(-c3ccc(NC(=O)Nc4cccc(OC(F)F)c4)c(F)c3)c2C1=O [Example 212, 1-(3-Difluoromethoxyphenyl)-3-{4-[6-ethyl-8,8-dimethyl-2-((S)-3-methylmorpholin-4-yl)-5-oxo-5,6,7,8-tetrahydro-9-oxa-1,3,6-triazabenzocyclohepten-4-yl]-2-fluorophenyl}urea] | 71 | 1540 | 141 | 8
CCN1CC(C)(C)Oc2nc(N3CC4CCC(C3)O4)nc(-c3ccc(NC(=O)Nc4ccccn4)cc3)c2C1=O [Example 33, 1-{4-[6-Ethyl-8,8-dimethyl-2-(8-oxa-3-azabicyclo[3.2.1]oct-3-yl)-5-oxo-5,6,7,8-tetrahydro-9-oxa-1,3,6-triazabenzocyclohepten-4-yl]phenyl}-3-pyridin-2-ylurea] | 226 | 9240 | 24 | 42
COCCN1CC(C)(C)Oc2nc(N3CCOC[C@@H]3C)nc(-c3ccc(NC(=O)Nc4ccc(F)cc4F)cc3)c2C1=O [Example 188, 1-(2,4-Difluorophenyl)-3-{4-[6-(2-methoxyethyl)-8,8-dimethyl-2-((S)-3-methylmorpholin-4-yl)-5-oxo-5,6,7,8-tetrahydro-9-oxa-1,3,6-triazabenzocyclohepten-4-yl]phenyl}urea] | 505 | 2330 | 63 | 45
CCN1CC(C)(C)Oc2nc(N3CCOC[C@@H]3C)nc(-c3ccc(NC(=O)Nc4cc(OC)ccn4)c(F)c3)c2C1=O [Example 181, 1-{4-[6-Ethyl-8,8-dimethyl-2-((S)-3-methylmorpholin-4-yl)-5-oxo-5,6,7,8-tetrahydro-9-oxa-1,3,6-triazabenzocyclohepten-4-yl]-2-fluorophenyl}-3-(4-methoxypyridin-2-yl)urea] | 1320 | 7650 | 74 | 285
CCN1CC(C)(C)Oc2nc(N3CCOC[C@@H]3C)nc(-c3ccc(NC(=O)Nc4ccc(N5CC6CCC(C5)O6)nc4)c(F)c3)c2C1=O [Example 258, 1-{4-[6-Ethyl-8,8-dimethyl-2-((S)-3-methylmorpholin-4-yl)-5-oxo-5,6,7,8-tetrahydro-9-oxa-1,3,6-triazabenzocyclohepten-4-yl]-2-fluorophenyl}-3-[6-(8-oxa-3-azabicyclo[3.2.1]oct-3-yl)pyridin-3-yl]urea] | 125 | 2940 | 53 | 20
CCN1CC(C)(C)Oc2nc(N3CC4CCC(C3)O4)nc(-c3ccc(NC(=O)Nc4ccnc(N5CC6CCC(C5)O6)c4)c(F)c3)c2C1=O [Example 260, 1-{4-[6-Ethyl-8,8-dimethyl-2-(8-oxa-3-azabicyclo[3.2.1]oct-3-yl)-5-oxo-5,6,7,8-tetrahydro-9-oxa-1,3,6-triazabenzocyclohepten-4-yl]-2-fluorophenyl}-3-[2-(8-oxa-3-azabicyclo[3.2.1]oct-3-yl)pyridin-4-yl]urea] | 95 | >10000 | 174 | 24
CCN1CC(C)(C)Oc2nc(N3CCOC[C@@H]3C)nc(-c3ccc(NC(=O)Nc4ccc(C(=O)NCC(C)(C)O)cc4)cc3)c2C1=O [Example 219, 4-(3-{4-[6-Ethyl-8,8-dimethyl-2-((S)-3-methylmorpholin-4-yl)-5-oxo-5,6,7,8-tetrahydro-9-oxa-1,3,6-triazabenzocyclohepten-4-yl]phenyl}ureido)-N-(2-hydroxy-2-methylpropyl)benzamide] | 436 | 98 | 38 | 28
CCN1CC(C)(C)Oc2nc(N3CCOC[C@@H]3C)nc(-c3ccc(NC(=O)O[C@H]4CCC[C@H]4O)cc3)c2C1=O [Example 53, {4-[6-Ethyl-8,8-dimethyl-2-((S)-3-methylmorpholin-4-yl)-5-oxo-5,6,7,8-tetrahydro-9-oxa-1,3,6-triazabenzocyclohepten-4-yl]phenyl}carbamic acid (1S,2R)-2-hydroxycyclopentyl ester] | 2160 | >10000 | 222 | 555
CNC(=O)Nc1ccc(-c2nc(N3C4CCC3COC4)nc3c2C(=O)N(C)CC(C)(C)O3)cc1 [Example 43, 1-Methyl-3-{4-[6,8,8-trimethyl-2-(3-oxa-8-azabicyclo[3.2.1]oct-8-yl)-5-oxo-5,6,7,8-tetrahydro-9-oxa-1,3,6-triazabenzocyclohepten-4-yl]phenyl}urea] | 82 | 4730 | 27 | 20
